From article PMC12539867, “Systematic identification of terpene synthases from sacred lotus (Nelumbo nucifera) and heterologous biosynthesis of the insecticidal and antimicrobial compound γ-eudesmol” (Horticulture Research, 2025)

Tests used:
NnTPS10 = tested on: T1, NnTPS10; assay: steady-state kinetics, purified enzyme; assay type: biochemical, Nelumbo nucifera; settings: 25 °C, pH 7.5
T1 construct: TPS-a; 565 residues; codon-optimised; purified from E. coli for kinetics; S. cerevisiae JCR27 for mutants; N314, L530, V537; D461-Y537-D541 triad also printed

NnTPS5 = biological target: T2, NnTPS5 (Nelumbo nucifera, UniProt A0A822ZHR2); assay: yeast co-expression with GGPPS and NnTPS6 or NnTPS7, GC-MS of ent-kaurene; assay type: cell-based; settings: substrate formed in the cell
T2 construct: gene HUJ06_002290; codon-optimised; S. cerevisiae JCR27 with NnTPS6 or NnTPS7 and GGPPS
T2 sequence (A0A822ZHR2 41-812): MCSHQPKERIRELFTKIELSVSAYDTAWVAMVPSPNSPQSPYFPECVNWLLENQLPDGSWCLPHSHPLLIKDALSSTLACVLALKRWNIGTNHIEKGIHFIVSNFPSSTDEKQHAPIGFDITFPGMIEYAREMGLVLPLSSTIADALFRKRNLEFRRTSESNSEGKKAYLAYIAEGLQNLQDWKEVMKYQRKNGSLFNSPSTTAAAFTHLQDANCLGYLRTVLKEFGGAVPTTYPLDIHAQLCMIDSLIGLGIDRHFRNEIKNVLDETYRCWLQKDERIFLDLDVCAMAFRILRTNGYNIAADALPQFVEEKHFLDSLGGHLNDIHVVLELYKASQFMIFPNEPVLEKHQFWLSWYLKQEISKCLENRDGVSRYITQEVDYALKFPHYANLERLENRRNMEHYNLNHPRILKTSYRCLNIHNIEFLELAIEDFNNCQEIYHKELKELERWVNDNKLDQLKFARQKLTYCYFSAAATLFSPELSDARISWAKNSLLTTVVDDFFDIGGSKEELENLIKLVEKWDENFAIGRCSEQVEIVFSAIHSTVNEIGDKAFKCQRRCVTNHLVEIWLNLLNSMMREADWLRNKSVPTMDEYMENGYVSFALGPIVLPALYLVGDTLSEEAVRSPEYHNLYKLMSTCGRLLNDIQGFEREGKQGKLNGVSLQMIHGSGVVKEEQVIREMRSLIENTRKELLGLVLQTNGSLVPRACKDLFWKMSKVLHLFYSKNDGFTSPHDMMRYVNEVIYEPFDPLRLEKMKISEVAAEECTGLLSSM

SMILES | Km (NnTPS10) | yeast co-expression with GGPPS and NnTPS6 or NnTPS7, GC-MS of ent-kaurene (NnTPS5)
CC(C)=CCC/C(C)=C/CC/C(C)=C/COP(=O)(O)OP(=O)(O)O [FPP] | 16.7 µM | 
C=C1CC[C@@H]2C(C)(C)CCC[C@@]2(C)[C@@H]1CC/C(C)=C/COP(=O)(O)OP(=O)(O)O [ent-CPP] |  | combining NnTPS6, NnTPS5, and GGPPS, a new product (D1) can be identified as ent-kaurene
